According to patent US8309685B2 (Celgene Avilomics Research, Inc., priority 2007, dated 2012):
Like-named read-outs stand apart in the source and are kept apart here.

Tests used:
[1] = biological target: HCV protease mutant A156T (Hepatitis C virus genotype 1b, UniProt Q9WMX2, A1182T); settings: biochemical assays, read-out: Comparative Ki Values, A156T; cited from earlier work
[2] = biological target: HCV protease mutant D168A (Hepatitis C virus genotype 1b, UniProt Q9WMX2, D1194A); settings: biochemical assays, cited from earlier work
[3] = biological target: T1, wild type HCV NS3/4A 1b protease enzyme (Hepatitis C virus genotype 1b, UniProt P26663); assay: biochemical; assay type: biochemical; settings: read-out: Inhibition, WT; WT enzyme, FRET assay
T1 construct: 10× stocks of NS3/4A protease enzyme from Bioenza (Mountain View, Calif.); purchased Bioenza (Mountain View, Calif.)

[4] = biological target: T2, A156T mutant of the HCV NS3/4A 1b protease enzyme (Hepatitis C virus genotype 1b, UniProt P26663, A1182T); assay: HCV Protease FRET Assay (IC50), A156T mutant; assay type: biochemical; settings: read-out: Inhibition, HCV A156T; A156T enzyme, FRET assay
T2 construct: 10× stocks of NS3/4A protease enzyme from Bioenza (Mountain View, Calif.); purchased Bioenza (Mountain View, Calif.)

[5] = biological target: T3, D168A mutant of the HCV NS3/4A 1b protease enzyme (Hepatitis C virus genotype 1b, UniProt P26663, D1194A); assay: HCV Protease FRET Assay (IC50), D168A mutant; assay type: biochemical; settings: read-out: Inhibition, HCV D168A; D168A enzyme, FRET assay
T3 construct: 10× stocks of NS3/4A protease enzyme from Bioenza (Mountain View, Calif.); purchased Bioenza (Mountain View, Calif.)

HCV NS3/4A protease = HCV NS3/4A protease (UniProt Q9WMX2); assay: Method B: HCV Protease Assay using FRET Methodology; parameters: species or system Hepatitis C virus; settings: read-out: Inhibition, Biochemical; Enzyme/Assay: Biochemical
Description: Method B: HCV Protease Assay using FRET Methodology
A quantitative, fluorescence resonance energy transfer (FRET)-based methodology was employed to identify HCV NS3/4A protease inhibitors. The assay employed a synthetic FRET peptide, derived from the HCV NS5A/5B cleavage site, with the HCV protease to evaluate the activity of compounds against the protease by monitoring the cleavage activity of the complex. A synthetic peptide which encompasses the NS5A-5B junction (NH2-EDVVCCSMSYK-COOH) was labeled with Dabcyl and Edans at N- and C-termini, respectively (Invitrogen, Carlsbad, Calif.). Fluorescence measurement was used to estimate the IC50 value of the test compound. […] Upon cleavage of the FRET peptide by HCV NS3/4A proteinase complex (100 ng/mL), the fluorescence is recovered and can be continuously monitored at excitation/emission=340/490 nm.

[6] = system: HCV RNA replicon in cell line ET (luc-ubi-neo/ET), human Huh7 hepatoma; assay: Method A: HCV RNA replicon antiviral assay (luciferase, ET cell line); assay type: cell-based, Hepatitis C virus; settings: Hepatitis C virus, Huh-7
Summary of the method: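 ET replicon cells (Huh7 carrying luciferase-reporter HCV replicon) plated at 5×10^3 cells/well and exposed 72 hr to six 3-fold drug concentrations in DMEM/5% FBS. Replicon luciferase gave EC50/EC90; CytoTox-1 cell counts gave IC50 (viability); […]. Interferon alpha-2b served as positive control.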

[7] = system: cell line ET (luc-ubi-neo/ET), human Huh7 hepatoma cell line; assay: Method A: cytotoxicity in ET replicon cells (CytoTox-1); assay type: cell-based; settings: concentration decreasing cell viability by 50%, 72 hr
Summary of the method: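 ET cells (Huh7 carrying luciferase HCV replicon), 5×10^3 cells/well, given six 3-fold compound concentrations in DMEM with 5% FBS. After 72 hr, while subconfluent, cell number was measured with CytoTox-1 reagent. Interferon alpha-2b served as positive control.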

[8] = biological target: T1, wild type HCV NS3/4A 1b protease enzyme; assay: HCV Protease FRET Assay (IC50_APP), wild type; assay type: biochemical
[9] = biological target: T2, A156T mutant of the HCV NS3/4A 1b protease enzyme; assay: HCV Protease FRET Assay (IC50_APP), A156T mutant; assay type: biochemical; settings: apparent IC50, A156T mutant; read-out: IC50_APP, HCV A156T
[10] = biological target: T3, D168A mutant of the HCV NS3/4A 1b protease enzyme; assay: HCV Protease FRET Assay (IC50_APP), D168A mutant; assay type: biochemical; settings: apparent IC50, D168A mutant; read-out: IC50_APP, HCV D168A
[11] = biological target: T4, HCV NS3/4A wild type (genotype 1b) (Hepatitis C virus genotype 1b, UniProt P26663); assay: Mass spectrometric analysis (MALDI-TOF) of covalent modification, HCV wild type; assay type: binding; settings: 10-fold excess of compound to protein, 1 hr
T4 construct: mass spectroscopic analysis of HCV NS3/4A wild-type protease domain; purchased Bioenza Calif
Experimental: Mass spectrometric analysis of HCV wild type or HCV variant C159S in the presence of test compound was performed. 100 pmols of HCV wild type (Bioenza Calif.) was incubated with compound for 1 hr and 3 hrs at 10-fold access of […] to protein. 1 ul aliquots of the samples (total volume of 4.24 ul) were diluted with 10 ul of 0.1% TFA prior to micro C4 ZipTipping directly onto the MALDI target using Sinapinic acid as the desorption matrix (10 mg/ml in 01% TFA:Acetonitrile 50:50). Analyses were performed on a Shimadzu Biotech Axima TOF^2 (Shimadzu Instruments) matrix-assisted-laser desorption/ionization Time-of-Flight (MALDI-TOF) mass spectrometer. The same procedure was carried out on 100 pmols of HCV C159S mutant of HCV protease for 3 hrs at 10-fold excess of (I-3) to protein.
As depicted in FIGS. 2, 3, 4, and 5, mass spectrometric analysis of HCV wild type or HCV mutants in the presence of test compound (I-3) was performed. […] 1 ul aliquots of the samples were diluted with 10 ul of 0.1% TFA prior to micro C4 ZipTipping directly onto the MALDI target using Sinapinic acid as the desorption matrix (10 mg/ml in 0.1% TFA:Acetonitrile 50:50).
Mass spectrometric analysis of HCV wild type (genotype 1b) in the presence of test compounds I-73 and I-75 was performed using the following protocol: HCV NS3/4A wild type (wt) was incubated for 1 hr at a 10× fold access of test compound to protein. 2 ul aliquots of the samples were diluted with 10 ul of 0.1% TFA prior to micro C4 ZipTipping directly onto the MALDI target using Sinapinic acid as the desorption matrix (10 mg/ml in 0.1% TFA:Acetonitrile 50:50). For intact protein mass measurement the instrument was set in Linear mode using a pulsed extraction setting of 24,500 and apomyoglobin as the standard to calibrate the instrument.
Mass spectrometric analysis of HCV NS3/4A genotypes 1a, 1b, 2a, and 3a in the presence of test compound I-96 was performed using the following protocol: HCV NS3/4A was incubated for 3 hr at a 10× fold access of test compound to protein. […]

[12] = biological target: T5, HCV R155K (NS3/4A 1b protease) (Hepatitis C virus genotype 1b, UniProt P26663, R1181K); assay: HCV Protease FRET Assay (IC50), R155K mutant; assay type: biochemical; settings: R155K enzyme, read-out: Inhibition, HCV R155K
T5 construct: 10× stocks of NS3/4A protease enzyme from Bioenza (Mountain View, Calif.); purchased Bioenza (Mountain View, Calif.)
Experimental: HCV Protease FRET Assay for Wild Type and Mutated NS3/4A 1b Enzymes (IC50)
The protocol is a modified FRET-based assay (v—02) from In Vitro Resistance Studies of HCV Serine Protease Inhibitors, 2004, JBC, vol. 279, No. 17, pp 17508-17514.
10× stocks of NS3/4A protease enzyme from Bioenza (Mountain View, Calif.) and 1.13× 5-FAM/QXL™ 520 FRET peptide substrate from Anaspec (San Jose, Calif.) were prepared in 50 mM HEPES, pH 7.8, 100 mM NaCl, 5 mM DTT and 20% glycerol. 5 μL of each enzyme were pre-incubated in a Corning (#3573) 384-well, black, non-treated microtiter plate (Corning, N.Y.) for 30 min at 25° C. with a 0.5 μL volume of 50% DMSO and serially diluted compounds prepared in 50% DMSO. Protease reactions were started with the addition of 45 μL of the FRET substrate and monitored for 120 minutes at λex487/λem514 through Quad^4 monochromoters in a Synergy^4 plate reader from BioTek (Winooski, Vt.). At the conclusion of each assay, progress curves from each well were examined for linear reaction kinetics and fit statistics (R^2, absolute sum of squares). Initial velocity (0 minutes to 30+ minutes) from each reaction was determined from the slope of a plot of relative fluorescence units vs time (minutes) and then plotted against inhibitor concentration to estimate IC50 from log[Inhibitor] vs Response, Variable Slope model in GraphPad Prism from GraphPad Software (San Diego, Calif.).
The compound numbers correspond to the compound numbers in Table 3. […] ;

[13] = biological target: T6, R155K mutant of the HCV NS3/4A 1b protease enzyme (Hepatitis C virus genotype 1b, UniProt P26663, R1181K); assay: HCV Protease FRET Assay (IC50_APP), R155K mutant; assay type: biochemical; settings: apparent IC50, R155K mutant; read-out: IC50_APP, HCV R155K
T6 construct: 10× stocks of NS3/4A protease enzyme from Bioenza (Mountain View, Calif.); purchased Bioenza (Mountain View, Calif.)

[14] = assay described in Example 22, read-out: Replicon (IC50)
[15] = read-out: IC50_APP, WT, apparent IC50, wild type NS3/4A 1b

Structure (SMILES): COc1ccc2c(O[C@@H]3C[C@H]4C(=O)N[C@]5(C(=O)O)C[C@H]5/C=C\CCCCC[C@H](NC(=O)OC5CCCC5)C(=O)N4C3)cc(-c3csc(NC(C)C)n3)nc2c1 [BILN 2061]
- Ki [1]: > 1200 nM
- IC50 ([2]; literature, read-out: Comparative IC50 Values, D168A): 1860 nM
- Ki ([2]; read-out: Comparative Ki Values, D168A): > 1200 nM

Structure (SMILES): C=C[C@@H]1C[C@]1(NC(=O)[C@@H]1C[C@@H](Oc2cc(-c3ccccc3)nc3cc(OC)ccc23)CN1C(=O)[C@H](CNC(=O)/C=C/C)NC(=O)OC(C)(C)C)C(=O)NS(=O)(=O)c1ccccc1 [Compound I-2, N-[(1,1-dimethylethoxy)carbonyl]-3-[(2-butenoyl)amino]-L-alanyl-(4R)-4-[(7-methoxy-2-phenyl-4-quinolinyl)oxy]-L-prolyl-1-amino-2-ethenyl-N-(phenylsulfonyl)-(1R,2S)-cyclopropanecarboxamide]
- IC50 [3]: < 10 nM
- IC50 [4]: 10 to 100 nM
- IC50 [5]: 1000 to 10000 nM
- IC50 (HCV NS3/4A protease): 100 to 1000 nM
- IC50 ([6]; Replicon, assay of Example 22, 72 hr, read-out: Inhibition, Replicon): 100 to 1000 nM
- Inhibition, Cytotoxicity [7]: E (IC50≧10,000 nM)

Structure (SMILES): C=C[C@@H]1C[C@]1(NC(=O)[C@@H]1C[C@@H](Oc2cc(-c3ccccc3)nc3cc(OC)ccc23)CN1C(=O)[C@@H](NC(=O)OC(C)(C)C)[C@@H](C)OC(=O)/C=C/C)C(=O)NS(=O)(=O)C1CC1 [Compound I-50, (E)-((2R,3S)-3-(tert-butoxycarbonylamino)-4-((2S,4R)-2-((1R,2S)-1-(cyclopropylsulfonylcarbamoyl)-2-vinylcyclopropylcarbamoyl)-4-(7-methoxy-2-phenylquinolin-4-yloxy)pyrrolidin-1-yl)-4-oxobutan-2-yl)but-2-enoate]
- IC90 ([6]; assay described in Example 22): < 10 nM
- IC50 [6, 14]: < 10 nM
- IC50 [8]: < 10 nM
- IC50 [9]: 100 to 1000 nM
- IC50 [10]: 100 to 1000 nM
- Covalent modification of HCV wild type by mass spectrometry [11]: measurable covalent modification

Structure (SMILES): C=CC(=O)NC[C@H](NC(=O)OC(C)(C)C)C(=O)N1C[C@H](Oc2nccc3ccc(Br)cc23)C[C@H]1C(=O)N[C@]1(C(=O)NS(=O)(=O)C2CC2)C[C@H]1C=C [Compound I-73, tert-butyl-(S)-3-acrylamido-1-((2S,4R)-4-(7-bromoisoquinolin-1-yloxy)-2-((1R,2S)-1-(cyclopropylsulfonylcarbamoyl)-2-vinylcyclopropylcarbamoyl)pyrrolidin-1-yl)-1-oxopropan-2-ylcarbamate]
- IC50 [12]: < 10 nM
- IC90 ([6]; assay described in Example 22): 100 to 1000 nM
- IC50 [6, 14]: 10 to 100 nM
- IC50 [8, 15]: < 10 nM
- IC50 [9]: 10 to 100 nM
- IC50 [10]: 100 to 1000 nM
- IC50 [13]: 10 to 100 nM

Structure (SMILES): C=CC(=O)N[C@H](C)C(=O)N1C[C@H](Oc2nccc3ccc(Br)cc23)C[C@H]1C(=O)N[C@]1(C(=O)NS(=O)(=O)C2CC2)C[C@H]1C=C [Compound I-74, (2S,4R)-1-((R)-2-acrylamidopropanoyl)-4-(7-bromoisoquinolin-1-yloxy)-N-((1R,2S)-1-(cyclopropylsulfonylcarbamoyl)-2-vinylcyclopropyl)pyrrolidine-2-carboxamide]
- IC50 [12]: < 10 nM
- IC90 ([6]; assay described in Example 22): 10 to 100 nM
- IC50 [6, 14]: 10 to 100 nM
- IC50 [8, 15]: < 10 nM
- IC50 [9]: 10 to 100 nM
- IC50 [10]: 100 to 1000 nM
- IC50 [13]: 10 to 100 nM

Structure (SMILES): C=C[C@@H]1C[C@]1(NC(=O)[C@@H]1C[C@@H](Oc2nccc3ccc(Br)cc23)CN1C(=O)[C@H](CCC(=O)C=C(C)C)NC(=O)OC(C)(C)C)C(=O)NS(=O)(=O)C1CC1 [Compound I-75, tert-butyl-(S)-1-((2S,4R)-4-(7-bromoisoquinolin-1-yloxy)-2-((1R,2S)-1-(cyclopropylsulfonylcarbamoyl)-2-vinylcyclopropylcarbamoyl)pyrrolidin-1-yl)-7-methyl-1,5-dioxooct-6-en-2-ylcarbamate]
- IC50 [12]: 10 to 100 nM
- IC90 ([6]; assay described in Example 22): 10 to 100 nM
- IC50 [6, 14]: < 10 nM
- IC50 [8, 15]: < 10 nM
- IC50 [9]: 100 to 1000 nM
- IC50 [10]: 1000 to 10000 nM
- IC50 [13]: 100 to 1000 nM
